Data reported in article PMC5662472 (Chemical communications (Cambridge, England), 2017).

Columns and labels:
[1] = biological target: Helicobacter pylori α1–3/4-fucosyltransferase (Hp3/4FT) (Helicobacter pylori, UniProt Q9L8S4); experiment: HPLC fucosyltransferase assay; details: acceptor; co-substrate GDP-Fuc; labelled compound
[2] = tested on: C[C@@H]1O[C@H](OP(=O)(O)OP(=O)(O)OC[C@H]2O[C@@H](n3cnc4c(=O)[nH]c(N)nc43)[C@H](O)[C@@H]2O)[C@@H](O)[C@H](O)[C@@H]1O; experiment: purified protein; details: donor; co-substrate LacNAcβPro2AA (best acceptor)

| Substance | Km [1] [µM] | Km [2] [µM] | kcat [2] [s⁻¹] | kcat/Km [2] [M⁻¹ s⁻¹] |
| --- | --- | --- | --- | --- |
| LacNAcβPro2AA | 460 ± 70 | – | – | – |
| LacβPro2AA | 990 ± 180 | – | – | – |
| Galβ3GlcNAcβPro2AA | 1320 ± 240 | – | – | – |
| Helicobacter pylori α1–3/4-fucosyltransferase (Hp3/4FT) (Helicobacter pylori) | – | 860 ± 130 | 6.02 ± 0.26 | 7010 |
